In ChEMBL document CHEMBL4706757, “Novel Substituted Pyridazines as Splicing Modulators for Modulating Splicing of mRNA and Uses Thereof for Treating Diseases” (ACS Med Chem Lett, 2021):

Tests used:
Type in all cases: cell-based
[1] = Modulation of HTT mRNA exon 49-50 splicing in human GM04724 cells incubated for 24 hrs by TaqMan qPCR analysis; settings: GM04724, 24 h
[2] = Modulation of HTT mRNA exon 49b splicing in human GM04724 cells incubated for 24 hrs by TaqMan qPCR analysis; settings: GM04724, 24 h
[3] = Modulation of HTT mRNA splicing in human GM04724 cells assessed as mHTT protein level incubated for 48 hrs by 2B7-MW1 assay; settings: GM04724, 48 h

Measured: EC50

Oc1cc(-c2cn[nH]c2)c(F)cc1-c1ccc(O[C@@H]2C[C@@H]3CCC[C@@H](N3)[C@@H]2F)nn1
≤ 0.01 nM: [1] | [2] | [3]

Cn1cc(-c2cc(O)c(-c3ccc(O[C@H]4C[C@H]5CCC[C@H](N5)[C@H]4F)nn3)cc2F)cn1
≤ 0.01 nM: [1] | [2] | [3]

Cn1cc(-c2cc(O)c(-c3ccc(O[C@@H]4C[C@@H]5CCC[C@@H](N5)[C@@H]4F)nn3)cc2F)cn1
≤ 0.01 nM: [1] | [2] | [3]

Oc1cc(-c2cn[nH]c2)ccc1-c1ccc(O[C@@H]2C[C@@H]3CCC[C@@H](N3)[C@@H]2F)nn1
≤ 0.01 nM: [1] | [2] | [3]

C[C@]12CCC[C@](C)(N1)[C@@H](F)[C@@H](Oc1ccc(-c3ccc(-c4cn[nH]c4)cc3O)nn1)C2
≤ 0.01 nM: [1] | [2] | [3]

Oc1cc(-c2cn[nH]c2)c(F)cc1-c1ccc(O[C@H]2C[C@H]3CCC[C@H](N3)[C@H]2F)nn1
≤ 0.01 nM: [1] | [2] | [3]

C[C@@]12CCC[C@@](C)(N1)[C@H](F)[C@H](Oc1ccc(-c3ccc(-c4cn[nH]c4)cc3O)nn1)C2
≤ 0.01 nM: [1] | [2] | [3]

Oc1cc(-c2cn[nH]c2)ccc1-c1ccc(O[C@H]2C[C@H]3CCC[C@H](N3)[C@H]2F)nn1
≤ 0.01 nM: [1] | [2] | [3]
